Measurements: patent US20160263169A1, “COMPOSITION COMPRISING AN EXTRACT OF COMBINED HERB CONSISTING OF HEAT PROCESSED GINSENG, HOUTTUYNIAE HERBA, PERILLA LEAF AND TEA LEAF OR THE PROCESSED EXTRACT THEREOF AS AN ACTIVE INGREDIENT SHOWING HAIR-STIMULATING ACTIVITY AND PREVENTING ACTIVITY FROM HAIR LOSS, AND THE USE THEREOF” (GINSENG SCIENCE INC., priority 2015, published 2016)

Test system: C57BL/6 mouse
Assay: Promoting effect on hair growth (hair-regrown area/shaved area) in shaved C57BL/6 mouse
Type: in vivo
Conditions: 2.5 mg spread on the back of mouse once a day
Protocol: 6 weeks-old mouse (C57BL/6, 18-20 g, at the beginning of catagen, Orient Bio Inc. Seoul, Korea) was accustomed to the breeding environment for 1 week and anesthetized intramuscularly with an anesthetizer (2.5 mg/mouse, Ketamine, rompun, Bayer Korea Inc.). The back-hair of anesthetized mouse was removed by a grainer and the mice were divided into four groups consisting of 10 mice, respectively, i.e., (1) negative control group: treatment group with only solvent, (2) positive control group: treatment group with Minoxidil (0.5%, w/w), (3) comparative test group: treatment group with the extract prepared in Comparative Example 1 dissolved in adjuvant in a dose dependent manner, (4) test sample group: treatment group with the extract prepared in Examples dissolved in adjuvant in a dose dependent manner. 2.5 mg of the test samples was spread on the back of mouse once a day for 20 days.
The ratio of hair-regrown area/shaved area was quantitatively analyzed by image analyzer (Image-Pro, USA) after shooting the hair-grown area with digital camera (Canon, Japan) and the test result was scored to 5 scores, i.e., score 0: ineffective; score 1: merely effective; score 2: favorably effective; score 3; potently effective; score 4; most potently effective as shown in Table 2.

In the case of Nc1cc(N2CCCCC2)nc(N)[n+]1[O-] [Positive control, Minoxidil], the Criteria (5th day) is reported as “IE (Ineffective (IE))”, the Hair growth ratio (5th day) is reported as 14% and the Score (5th day) is reported as 0 (0-20%). For the same molecule, the Criteria (10th day) was “FE (favorably effective (FE))”, the Hair growth ratio (10th day) was 42% and the Score (10th day) was 2 (40-60%). For the same molecule, the Criteria (15th day) was “PE (potently effective (PE))”, the Hair growth ratio (15th day) was 62% and the Score (15th day) was 3 (60-70%). For the same molecule, the Criteria (20th day) was “PE (potently effective (PE))”, the Hair growth ratio (20th day) was 68% and the Score (20th day) was 3 (60-70%).
